Experiment [1] addresses T1, BACE1 (Homo sapiens, UniProt P56817). Put plainly: In Vitro BACE Cell-based Assay (HEK cell assay): Aβ40 in conditioned medium of cells stably expressing Amyloid Precursor Protein, sandwich ELISA. The method in brief: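 First, APP-stable cells grow 24 h at 37° C., 5% CO2. Next, test compounds are added for 24 h (10 doses, 0.1% DMSO). Finally, medium Aβ40 is determined by pAb40/6E10 sandwich ELISA with Europium TRF, and IC50 is calculated.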
In general terms: In an ELISA, binding on a coated surface is turned into a signal by an enzyme label.

Experiment [2] addresses T1, BACE1. Nature of the experiment: In Vitro Enzymatic BACE FRET (Fluorescence Resonance Energy Transfer) Assay. It is filed as biochemical. The method in brief: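 Acetate buffer at pH 4.2 with 10% DMSO and 100 uM genapol hosts the enzymatic reaction, initiated by 50 nM FRET substrate and allowed to proceed one hour. Tris quench to neutral pH precedes the fluorescence measurement.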

The mark [3] stands for this setting: Table III, IC50's in uM ranges, read-out: HEK cell assay.
Setting [4] is: Table III, IC50's in uM ranges, read-out: BACE1 FRET assay.
[5] abbreviates: HEK cells, read-out: HEK cell assay.
[6] abbreviates: HEK cell-based assay, Aβ40 in conditioned medium, IC50 class symbols, read-out: HEK cell assay.
[7] abbreviates: in vitro BACE FRET enzyme assay, IC50 class symbols, read-out: BACE1 FRET assay.
Where [8] appears, read: Table IV, class symbols, read-out: HEK cell assay.
Setting [9] is: Table IV, class symbols, read-out: BACE1 FRET assay.

Each structure is given as a SMILES string.

T1 sequence (P56817 46-501, species assumed): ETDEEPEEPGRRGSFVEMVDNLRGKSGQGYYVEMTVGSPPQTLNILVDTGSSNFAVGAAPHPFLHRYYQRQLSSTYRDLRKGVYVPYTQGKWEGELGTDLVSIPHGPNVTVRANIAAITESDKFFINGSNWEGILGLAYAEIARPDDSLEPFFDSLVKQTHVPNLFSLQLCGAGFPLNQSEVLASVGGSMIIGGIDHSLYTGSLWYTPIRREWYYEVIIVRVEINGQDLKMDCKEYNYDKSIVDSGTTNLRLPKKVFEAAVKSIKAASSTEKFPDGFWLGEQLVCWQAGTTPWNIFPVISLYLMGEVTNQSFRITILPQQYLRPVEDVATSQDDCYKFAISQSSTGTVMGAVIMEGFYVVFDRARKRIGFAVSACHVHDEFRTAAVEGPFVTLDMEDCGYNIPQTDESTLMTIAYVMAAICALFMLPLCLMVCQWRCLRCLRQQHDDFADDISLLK

For the compound `CC(C)(C)COc1ccc2c(c1)[C@@]1(COC(N)=N1)c1cc(-c3cncnc3)cc(F)c1O2` [155a], the values for the IC50 on BACE1 [1] (setting [3]) and on BACE1 [2] (setting [4]) were 0.1 to 1 µM and below 0.1 µM, respectively.

On to `NC1=N[C@@]2(CO1)c1cc(-c3cccnc3)ccc1Oc1cnc(Cl)cc12` [compound 676], for which the values for the IC50 on BACE1 [1] (read-out: HEK cell assay) and at BACE1 [2] (read-out: BACE1 FRET assay) were 1 to 5 µM and 0.1 to 1 µM, respectively.

Regarding `CC(C)(C#N)COc1ccc2c(c1)[C@]1(COC(N)=N1)c1cc(-c3cncnc3)cnc1O2` [compound 167], the IC50 on BACE1 [1] (setting [3]) is 0.1 to 1 µM; at BACE1 [2] (setting [4]) it was below 0.1 µM.

As for `NC1=N[C@@]2(CO1)c1cc(-c3cccnc3F)ccc1Oc1cnc(C3CCOCC3)cc12` [Example 495, (5S)-7-(2-fluoro-3-pyridinyl)-3-(tetrahydro-2H-pyran-4-yl)spiro[chromeno[2,3-c]pyridine-5,4′-[1,3]oxazol]-2′-amine], the IC50 against BACE1 [1] (HEK cell assay (uM), HEK cells) is below 0.1 µM; at BACE1 [2] (BACE1 FRET assay (uM)) it was below 0.1 µM.

Take `CC(C)(C)/C=C/c1cc2c(cn1)Oc1ccc(-c3cccnc3F)cc1[C@@]21COC(N)=N1` [compound 514]: the IC50 at BACE1 [1] (setting [5]) and on BACE1 [2] (read-out: BACE1 FRET assay) was below 0.1 µM throughout.

Regarding `NC1=N[C@@]2(CO1)c1cc(-c3cccnc3F)ccc1Oc1cnc(-c3ccccc3)cc12` [compound 494], the IC50 is below 0.1 µM at BACE1 [1] (HEK cell assay (uM), HEK cells) and below 0.1 µM at BACE1 [2] (BACE1 FRET assay (uM)).

For the compound `NC1=N[C@@]2(CO1)c1cc(-c3cncnc3)ccc1Oc1ccc([C@@H]3CCOC3)cc12` [compound 420], the figures for the IC50 on BACE1 [1] (setting [5]) and on BACE1 [2] (read-out: BACE1 FRET assay) were 0.1 to 1 µM and below 0.1 µM, respectively.

As to `Cc1cncc(-c2ccc3c(c2)[C@@]2(COC(N)=N2)c2cc(N4CCOCC4)ncc2O3)c1` [compound 325], the IC50 at BACE1 [1] (setting [6]) and at BACE1 [2] (setting [7]) was below 0.1 µM each time.

As for `CC(C)(C)C#Cc1ccc2c(c1)[C@]1(COC(N)=N1)c1cc(Oc3ccccn3)ccc1O2` [Example 112, (4R)-2′-(3,3-dimethyl-1-butyn-1-yl)-7′-(2-pyridinyloxy)spiro[1,3-oxazole-4,9′-xanthen]-2-amine], the IC50 was 0.1 to 1 µM on BACE1 [1] (setting [3]) and below 0.1 µM at BACE1 [2] (setting [4]).

On to `NC1=N[C@@]2(CO1)c1cc(-c3cccnc3)ccc1Oc1cnc(C3=CCCCC3)cc12` [compound 848], for which the IC50 on BACE1 [1] (setting [8]) and at BACE1 [2] (setting [9]) was below 0.1 µM throughout.

In the case of `CC(C)(C)CC(=O)c1ccc2c(c1)[C@]1(CSC(N)=N1)c1cc(-c3cncnc3)ccc1O2` [compound 761], the values for the IC50 at BACE1 [1] (read-out: HEK cell assay) and at BACE1 [2] (read-out: BACE1 FRET assay) were 0.1 to 1 µM and below 0.1 µM, respectively.

As for `CCCNC(=O)c1ccc2c(c1)[C@@]1(COC(N)=N1)c1cc(OCC(C)(C)C)ccc1O2` [compound 657], the results for the IC50 on BACE1 [1] (setting [8]) and at BACE1 [2] (setting [9]) were 0.1 to 1 µM and below 0.1 µM, respectively.

On to `CC(=O)COc1ccc2c(c1)[C@@]1(COC(N)=N1)c1cc(-c3cccnc3)cnc1O2` [compound 926], for which the IC50 on BACE1 [1] (read-out: HEK cell assay) and on BACE1 [2] (read-out: BACE1 FRET assay) was 0.1 to 1 µM in each case.

For the compound `NC1=N[C@]2(CO1)c1cc(-c3ccc(OC(F)F)cc3)ccc1Oc1ccc(-c3cncnc3)cc12` [compound 773], the IC50 on BACE1 [1] (read-out: HEK cell assay) is 0.1 to 1 µM; on BACE1 [2] (read-out: BACE1 FRET assay), below 0.1 µM.

Regarding `CC(C)(C)COc1ccc2c(c1)[C@]1(COC(N)=N1)c1cc(C(C)(C)O)ccc1O2` [compound 827], the IC50 fell in the range of 1 to 5 µM on BACE1 [1] (setting [8]) and 0.1 to 1 µM at BACE1 [2] (setting [9]).

As to `CC(C)C[C@@H]1CN(c2ccc3c(c2)[C@]2(COC(N)=N2)c2cc(-c4cncnc4)ccc2O3)CCO1` [compound 422], the IC50 on BACE1 [1] (setting [5]) and at BACE1 [2] (read-out: BACE1 FRET assay) was 0.1 to 1 µM in each case.

As to `CC(C)(C)C#Cc1ccc2c(c1)[C@@]1(COC(N)=N1)c1cc(-c3ccc(F)nc3)ccc1O2` [147b], the values for the IC50 at BACE1 [1] (setting [3]) and at BACE1 [2] (setting [4]) were 0.1 to 1 µM and below 0.1 µM, respectively.

Take `COc1ccc2c(c1)[C@]1(COC(N)=N1)c1cc(-c3ccnc4ccccc34)ccc1O2` [compound 589]: the IC50 at BACE1 [1] (setting [8]) and at BACE1 [2] (setting [9]) was 1 to 5 µM each time.

`CC(C)(C)C#Cc1ccc2c(c1)[C@]1(COC(N)=N1)c1cc(Cl)ncc1O2` [compound 846]: the IC50 on BACE1 [1] (setting [8]) was above 5 µM; on BACE1 [2] (setting [9]), 1 to 5 µM.

Regarding `CC(C)(C)C#Cc1cnc2c(c1)[C@]1(COC(N)=N1)c1cc(-c3ccnnc3)ccc1O2` [compound 653], the IC50 on BACE1 [1] (setting [8]) was 0.1 to 1 µM; at BACE1 [2] (setting [9]), below 0.1 µM.

Consider `C[Si](C)(C)C#Cc1cnc2c(c1)[C@]1(COC(N)=N1)c1cc(-c3cccnc3)ccc1O2` [compound 348], for which the IC50 on BACE1 [1] (setting [6]) and on BACE1 [2] (setting [7]) was below 0.1 µM throughout.

For `NC1=N[C@]2(CO1)c1cc(C3=CCOC3)ccc1Oc1ccc(-c3cncnc3)cc12` [compound 448], the IC50 at BACE1 [1] (setting [5]) and at BACE1 [2] (read-out: BACE1 FRET assay) was below 0.1 µM throughout.

With `CC(C)(C)C#Cc1ccc2c(c1)[C@]1(COC(N)=N1)c1cc(-c3cccnc3)ncc1O2` [compound 824], the figures for the IC50 at BACE1 [1] (setting [8]) and at BACE1 [2] (setting [9]) were 0.1 to 1 µM and below 0.1 µM, respectively.
